Test results as given in article PMC4664064 (Chemical research in toxicology, 2015).

Legend:
P450 1B1 = target: T1, P450 1B1 (Homo sapiens, UniProt Q16678); test: EROD assay with recombinant enzyme, compound at […]; format: biochemical
T1 sequence (Q16678 1-543): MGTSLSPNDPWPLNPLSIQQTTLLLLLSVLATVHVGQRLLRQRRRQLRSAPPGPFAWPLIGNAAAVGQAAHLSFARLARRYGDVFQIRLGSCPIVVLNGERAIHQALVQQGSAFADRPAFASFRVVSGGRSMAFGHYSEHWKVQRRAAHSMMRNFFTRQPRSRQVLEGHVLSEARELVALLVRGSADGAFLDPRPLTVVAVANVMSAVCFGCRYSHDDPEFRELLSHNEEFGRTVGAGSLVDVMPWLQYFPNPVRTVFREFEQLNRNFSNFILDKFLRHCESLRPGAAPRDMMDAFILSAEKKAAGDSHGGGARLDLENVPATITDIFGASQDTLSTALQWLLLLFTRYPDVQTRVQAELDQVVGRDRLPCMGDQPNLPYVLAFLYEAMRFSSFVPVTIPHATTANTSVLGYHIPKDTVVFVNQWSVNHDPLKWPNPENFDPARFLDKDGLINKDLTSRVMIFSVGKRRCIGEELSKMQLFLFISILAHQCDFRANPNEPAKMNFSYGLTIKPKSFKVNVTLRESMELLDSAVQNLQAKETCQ
T1 sequence (P16435 2-677 partner): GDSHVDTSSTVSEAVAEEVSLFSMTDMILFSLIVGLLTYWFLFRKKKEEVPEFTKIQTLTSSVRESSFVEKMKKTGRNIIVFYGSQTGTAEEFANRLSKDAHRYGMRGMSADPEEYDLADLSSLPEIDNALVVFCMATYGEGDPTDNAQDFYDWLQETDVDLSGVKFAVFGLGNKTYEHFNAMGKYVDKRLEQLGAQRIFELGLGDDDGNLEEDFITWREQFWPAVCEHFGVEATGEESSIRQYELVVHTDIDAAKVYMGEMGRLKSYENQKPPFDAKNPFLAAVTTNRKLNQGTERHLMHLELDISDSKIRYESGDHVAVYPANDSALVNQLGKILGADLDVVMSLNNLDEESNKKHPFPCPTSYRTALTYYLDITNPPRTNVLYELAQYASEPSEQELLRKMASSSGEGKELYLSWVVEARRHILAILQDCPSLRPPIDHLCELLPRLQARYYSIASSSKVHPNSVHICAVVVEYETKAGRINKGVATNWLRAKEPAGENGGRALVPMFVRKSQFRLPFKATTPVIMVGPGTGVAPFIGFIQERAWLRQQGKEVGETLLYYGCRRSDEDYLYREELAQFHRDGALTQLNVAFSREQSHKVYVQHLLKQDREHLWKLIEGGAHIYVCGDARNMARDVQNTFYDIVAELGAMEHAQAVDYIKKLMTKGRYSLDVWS

P450 1A1 = target: T2, P450 1A1 (Homo sapiens, UniProt P04798); test: EROD assay with recombinant enzyme, compound at […]; format: biochemical
T2 sequence (P04798 1-512): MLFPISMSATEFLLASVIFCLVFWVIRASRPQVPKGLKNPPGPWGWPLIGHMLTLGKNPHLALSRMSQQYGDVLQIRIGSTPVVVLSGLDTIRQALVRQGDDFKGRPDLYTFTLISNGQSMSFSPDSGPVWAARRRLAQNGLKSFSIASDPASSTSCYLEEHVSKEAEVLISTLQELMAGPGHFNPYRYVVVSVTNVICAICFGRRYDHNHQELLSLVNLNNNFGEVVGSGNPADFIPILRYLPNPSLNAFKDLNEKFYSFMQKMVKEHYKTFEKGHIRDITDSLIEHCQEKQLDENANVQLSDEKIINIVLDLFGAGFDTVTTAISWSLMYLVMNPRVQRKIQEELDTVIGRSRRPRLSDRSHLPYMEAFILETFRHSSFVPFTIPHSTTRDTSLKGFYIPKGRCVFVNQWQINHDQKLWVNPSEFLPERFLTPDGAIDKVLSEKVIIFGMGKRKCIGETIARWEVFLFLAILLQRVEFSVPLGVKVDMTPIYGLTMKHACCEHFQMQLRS
T2 sequence (P16435 2-677 partner): T1 sequence (P16435 2-677 partner)

Structure (SMILES): C=CC(C)(C)c1cc(/C=C/C(=O)c2ccc(O)cc2)c(OC)cc1O [LicA, licochalcone A]
- EROD assay with recombinant enzyme, compound at 1 and 10 uM (P450 1B1): LicA and LigC led to a significant inhibition of recombinant P450 1A1/1B1 enzyme activity (Figure 7B, C)
- EROD assay with recombinant enzyme, compound at 1 and 10 uM (P450 1A1): LicA and LigC led to a significant inhibition of recombinant P450 1A1/1B1 enzyme activity (Figure 7B, C)

Structure (SMILES): O=C(/C=C/c1ccc(O)cc1)c1ccc(O)cc1O [LigC, isoliquiritigenin]
- EROD assay with recombinant enzyme, compound at 1 and 10 uM (P450 1B1): LicA and LigC led to a significant inhibition of recombinant P450 1A1/1B1 enzyme activity (Figure 7B, C)
- EROD assay with recombinant enzyme, compound at 1 and 10 uM (P450 1A1): LicA and LigC led to a significant inhibition of recombinant P450 1A1/1B1 enzyme activity (Figure 7B, C)
